Assay results reported in ChEMBL document CHEMBL1139287, “Spiro(imidazo[1,2-a]pyrano[2,3-c]pyridine-9-indenes) as inhibitors of gastric acid secretion” (Bioorg Med Chem, 2009).

Assays:
[1] = physchem
Description: Dissociation constant, pKa of the compound

[2] = physchem; conditions: octanol/water, pH 7.4
Description: Octanol-water distribution coefficient, log D at pH 7.4 at 25 degC by potentiometric titration method

[3] = Octanol-water distribution coefficient, log D by HPLC; type: physicochemical

pKa [1]	logD [2]	logD [3]	Structure (SMILES)
6.8	3.29	–	CNC(=O)c1cn2c(C)c(C)nc2c2c1CCC1(CCc3ccccc31)O2 (stereo not given)
6.76	3.64	–	Cc1nc2c3c(c(C(=O)NC4CC4)cn2c1C)CCC1(CCc2ccccc21)O3 (stereo not given)
6.81	3.19	–	Cc1nc2c3c(c(C(=O)N4CCC4)cn2c1C)CCC1(CCc2ccccc21)O3 (stereo not given)
6.88	3.36	–	Cc1nc2c3c(c(C(=O)N4CCCC4)cn2c1C)CCC1(CCc2ccccc21)O3 (stereo not given)
6.81	3.87	–	Cc1nc2c3c(c(C(=O)N4CCCCC4)cn2c1C)CCC1(CCc2ccccc21)O3 (stereo not given)
6.87	3.42	–	Cc1cccc2c1CCC21CCc2c(C(=O)N(C)C)cn3c(C)c(C)nc3c2O1 (stereo not given)
–	–	3	Cc1nc2c3c(c(C(=O)N(C)C)cn2c1C)CCC1(CCc2cc(F)ccc21)O3 (stereo not given)
6.74	2.85	–	Cc1nc2c3c(c(C(=O)N4CCOCC4)cn2c1C)CCC1(CCc2ccccc21)O3 (stereo not given)
6.84	–	2.9	Cc1nc2c3c(c(C(=O)N(C)C)cn2c1C)CCC1(Cc2ccccc2C1)O3
6.55	3.57	–	Cc1nc2c3c(c(C(=O)N4CC(F)(F)C4)cn2c1C)CCC1(CCc2ccccc21)O3 (stereo not given)
6.76	4.7	–	Cc1nc2c3c(c(C(=O)Nc4ccccc4)cn2c1C)CCC1(CCc2ccccc21)O3 (stereo not given)
6.63	3.15	–	CON(C)C(=O)c1cn2c(C)c(C)nc2c2c1CCC1(CCc3ccccc31)O2 (stereo not given)
6.84	2.91	–	Cc1nc2c3c(c(C(=O)N(C)C)cn2c1C)CCC1(CCc2ccccc21)O3 (racemic)
